According to patent US20100056631A1, “ANTIALLERGENIC COMPOSITION” (OPHTECS CORPORATION, priority 2006, published 2010):

Legend:
[1] = tested on: rat administered with an ophthalmic solution of histamine; test: Effect of suppressing histamine-induced pruritus; type: in vivo; conditions: 5 μl eye drops to both eyes 5 min before histamine 10 μmol/5 μl; scratching observed 20 min (FIG. 4)
Description: In experiments on the evaluation of the effect of suppressing histamine-induced pruritus, test formulation No. 1 (0% of sodium D-3-hydroxybutyrate, referred to as PBS in FIG. 4) and test formulation No. 4 (1.0% of sodium D-3-hydroxybutyrate, referred to as 1% HBA in FIG. 4) shown in Table 1 and Intal (2% of sodium cromoglycate) and Livostin (0.025% of levocabastine hydrochloride) as Comparative formulation were used.
5 μl of an ophthalmic solution of the test formulation or Comparative formulation was administered to the both eyes of each rat each time. Five minutes after this, 10 μmol/5 μl of an ophthalmic solution of histamine was administered to one eye each time to induce pruritus in the rat. […] Meanwhile, Intal which is a chemical mediator isolation inhibitor was not effective (FIG. 4).

[2] = tested on: rat suffering from experimental allergenic conjunctivitis; test: Evaluation test of itching suppression effect in rat model of chronically allergic conjunctivitis; type: in vivo; conditions: 5 μl eye drops to both eyes 5 min before local sensitizing reagent (egg albumin), scratching observed 20 min, repeated 8 days, total for 8 days vs test formulation No. 1 (FIG. 1, 2; significant level of 5%)
Description: 0.6 ml of a primary sensitizing reagent (a solution prepared by dissolving 20 mg of egg albumin, 40 mg of aluminum hydroxide gel and 2×10^11 units of an inactivated pertussis antigen in physiological saline) was administered to the footpads of both hands and both feet of a rat by using a 24G injection needle. Five days after the administration of the primary sensitizing reagent, 1 ml of a secondary sensitizing reagent (a solution prepared by dissolving 50 mg of egg albumin in 100 ml of physiological saline) was injected hypodermically into the back portion of the rat by using a 27G injection needle. From 14-th to 42-th days after the administration of the primary sensitizing reagent, 5 μl of drops of a local sensitizing reagent (a solution prepared by dissolving 500 mg of egg albumin in 50 ml of physiological saline) was administered to the both eyes of the rat, and the rat was put in an observation cage to observe the “scratching” of the rat for 20 minutes right after the administration of the ophthalmic solution. The rat which took this action 10 times or more within 20 minutes was used as a “rat suffering from experimental allergenic conjunctivitis” in the experiment. […]

**Q.** What does the source list for `C[C@@H](O)CC(=O)[O-].[Na+]` [Sodium D-3-hydroxybutyrate]?
**A.** scratching after histamine ophthalmic solution (effect of suppressing itching) [1]: excellent pruritus suppression effect; number of times of scratching (itching suppression effect) [2]: suppressed the scratching of the rat suffering from an experimental allergy, dependent upon its volume; number of times of scratching (itching suppression effect) ([2]; listed as sodium D-3-hydroxybutyrate): excellent pruritus suppression effect
